Source: patent publication US4585741A, “Method of assay for vitamin D metabolites” (priority 1983, dated 1986)

Key:
[1] = tested on: monoclonal antibody B2B4, raised in mice against bovine serum albumin-derivatized calcitroic acid; settings: for concentration displacing half of the reversibly bound 3H-1,25-(OH)2 D3: monoclonal antibody b2b4, 18 h
Procedure: (§1) Monoclonal antibodies binding calcitroic acid were detected in culture supernatants by a radioimmunoassay in which supernatants were exposed to microtiter plates coated with a calcitroic acid-egg albumin conjugate.
Radioligand was added after 1 hr pre-incubation in displacement assays; otherwise it was added immediately. […] Alternatively, 20 λ of a partially purified preparation of carrier mouse IgG was added to the assay mixture. Then 40 λ of purified preparation of rabbit antimouse IgG was added and the mixture incubated for 4 hours at 4° C. […] After centrifugation at 1000×g for 20 minutes, the supernatants were aspirated, the pellets suspended in Budget Solve (Research Products International, Mount Prospect, Ill.) and their radioactivity determined in a Beckman 7000 Scintillation Counter (Beckman Instruments Company, Palo Alto, Calif.).
For sucrose density gradient analysis, 350 λ of assay mixture or supernatant after immunoprecipitation was layered on a linear 5-20% sucrose gradient and centrifuged at 100,000×g for 17 hours. Molecular markers, human gamma globulin (16 mg/ml assay buffer) (Calbiochem-Behring, La Jolla, Calif.) and BSA (12 mg/ml assay buffer) were centrifuged identically. Fractions were collected through a bottom puncture apparatus and their radioactivity assayed.

[2] = tested on: monoclonal antibody B3A1, raised in mice against bovine serum albumin-derivatized calcitroic acid
Procedure: Bound tracer is separated from free by second antibody precipitation.
as §1
Radioligand was added after 1 hr pre-incubation in displacement assays; otherwise it was added immediately. After incubation for 18 hours, 10λ of rabbit anti-mouse Fab' (unrestricted gift of Dr. Judith Kapp-Pierce, Department of Pathology, Jewish Hospital of St. Louis and Washington University School of Medicine) was added with carrier mouse IgG and tubes were incubated for another 45 minutes at 4°. Alternatively, 20 λ of a partially purified preparation of carrier mouse IgG was added to the assay mixture. Then 40 λ of purified preparation of rabbit antimouse IgG was added and the mixture incubated for 4 hours at 4° C. […] After centrifugation at 1000×g for 20 minutes, the supernatants were aspirated, the pellets suspended in Budget Solve (Research Products International, Mount Prospect, Ill.) and their radioactivity determined in a Beckman 7000 Scintillation Counter (Beckman Instruments Company, Palo Alto, Calif.).

C=C1/C(=C\C=C2/CCC[C@]3(C)[C@@H]([C@H](C)CCCC(C)(C)O)CC[C@@H]23)C[C@@H](O)C[C@@H]1O [1,25-(OH)2 D3, 1,25-dihydroxycholecalciferol] was tested, and the “displacement of radioligand from B2B4 (sucrose gradient)” value ([1]; 1 ng/ml of 1,25-(OH)2 D3 added prior to centrifugation, data not shown) was “almost completely displaced”.
With C=C1CC[C@H](O)C/C1=C/C=C1\CCC[C@]2(C)[C@@H]([C@H](C)CCC(O)C(C)(C)O)CC[C@@H]12 (stereo partly drawn) [24,25-(OH)2 D3, 24,25-dihydroxycholecalciferol] the “concentration displacing half of the reversibly bound 3H-1,25-(OH)2 D3” value [1] was 0.048 ng/mL, the “KD of calcitriol less than the KD of this analog by” value [2] was “about 41/2” and the “recognition by the antibody” value ([2]; at concentrations as great as 100 ng/ml) was “does not recognize”.
In the case of C=C1CC[C@H](O)C/C1=C/C=C1\CCC[C@]2(C)[C@@H]([C@H](C)CCCC(C)(C)O)CC[C@@H]12 [25-OHD3, 25-hydroxycholecalciferol], the “concentration displacing half of the reversibly bound 3H-1,25-(OH)2 D3” value [1] is reported as 0.068 ng/mL and the “KD of calcitriol less than the KD of this analog by” value [2] is reported as “more than 6 orders of magnitude”.
